Results on 1 compound are retold here after paper PMC9496258, “Trace Immunosensing of Multiple Neonicotinoid Insecticides by a Novel Broad-Specific Antibody Obtained from a Rational Screening Strategy” (Biosensors, 2022).

One may read the IC50 as the concentration needed to halve the response being measured.

Assay [1] concerns mAb 4B1. As to the kind of experiment: icELISA with mAb 4B1 (hybridoma supernatant), coating antigen imidacloprid-OVA. In kind it is binding, mouse. As to the method:
(§1) Procedures for the immunization, cell fusion and clone selection were similar to those described in our previous publications, and indirect non-competitive and competitive ELISAs were sequentially used for hybridoma screening. The generated mAb was purified by protein G from the ascitic fluid and then stored at −20 °C for further analysis. A mouse antibody isotyping kit was used to determine the isotypes of the mAbs.
(§2) Checkerboard titration was carried out by icELISAs with serial dilutions of the antibody and coating antigen (imidacloprid-OVA). […] The specificity and sensitivity were determined by icELISAs. Briefly, the mixture of standards with different concentrations and equal volume of antibody was added into the reaction wells of pre-coated plates. Standard curves were fitted into a four-parameter logarithmic equation: Y = A2 + [(A1 − A2)/1 + (X/X0)^p], and the half-maximal inhibitory concentration (IC50, defined as the assay sensitivity, was used to calculate cross-reactivity rate(CR).
(§3) Moreover, sensitivity (IC50) and CR to eight neonicotinoids were assessed by icELISAs.

Assay [2] has as its system mAb 5C3. As to the kind of experiment: icELISA with mAb 5C3 (hybridoma supernatant), coating antigen imidacloprid-OVA. In kind it is binding, mouse. Here is the method:
as §1, §2, §3

Assay [3] relates to anti-imidaclothiz mAb. Also noted: method as in PMID 21299253. The note with it: anti-imidaclothiz mAb-based ELISA; cited from earlier work. For orientation: In an ELISA, binding on a coated surface is turned into a signal by an enzyme label.
Assay [4] concerns mAb 6F11. In words: icELISA with mAb 6F11 (hybridoma supernatant), coating antigen imidacloprid-OVA. Format: binding, mouse. As to the method: as §1, §2, §3
Assay [5] concerns positive hybridoma clones. As to the kind of experiment: Dual-target icELISA hybridoma screening. In kind it is binding, mouse. The conditions noted are these: analyte at 1 µg/mL, nine clones. Here is the method: as §1
After cell fusion and the primary screening by non-competitive ELISAs, 37 positive wells of hybridomas giving the absorbance values higher than 0.5 were picked out and filled with fresh culture medium. On the next day, they were quickly rechecked by icELISAs to qualitatively test the ability of recognizing both imidacloprid and acetamiprid. […] Therefore, the top four broad-specific clones were selected and screened with imidacloprid and acetamiprid until stable hybridoma lines were obtained. Then the culture supernatants were collected for characterization of the four kinds of broad-specific mAbs.

For assay [6], the system named is mAb 1A5. As to the kind of experiment: icELISA with mAb 1A5 (hybridoma supernatant), coating antigen imidacloprid-OVA. Format: binding, mouse. As to the method:
as §1, §2, §3

The test system of assay [7] is 6F11-rAb. In words: GNIS (gold lateral-flow immunosensing strip) assay based on 6F11-rAb. In kind it is binding, mouse. An excerpt:
The preparation method for the conjugate of rAb-gold nanoparticles was based on a previous report. A colloid gold lateral-flow immunosensing strip consisted of three pads (glass fiber membrane, NC membrane and absorption membrane) using a one-sided adhesive polyvinyl chloride sheet as a support. The prepared imidaclothiz-OVA conjugate and goat anti-mouse IgG antibody were immobilized onto the NC membrane as the test line (T line) and control line (C line), respectively. For analysis, standard solutions at different concentrations were added to the 96-well microtiter plate, and then the strip was inserted into the well. After 15 min, the signal was observed using a portable reader (Helmen, Suzhou, China). Standard curves were gained by plotting the signal ratio of the T line to the C line (T/C) against the analyte concentration, and they were also fitted into the four-parameter logarithmic equation.
The 6F11-rAb was used to establish a rapid and reliable GNIS assay, and the limit detection of T-line disappearance was 5 ng/mL for imidacloprid, clothianidin and imidaclothiz and over 100 ng/mL for thiacloprid, acetamiprid and nitenpyram, judged by normal visual detection (Figure 5). […] Therefore, imidacloprid, clothianidin and imidaclothiz, with better sensitivity, were further determined by spiking experiment.

Assay [8] has as its system 6F11-rAb. In words: icELISA with full-length recombinant 6F11-rAb. Format: binding, mouse. Here is the method:
Transient production in the HEK 293F suspension cells was performed as described. Briefly, cells were prepared with viable cell density around 1.5 × 10^6 cells/mL and viability above 95 % in 180 mL serum-free culture medium in 500 mL Nunc Erlenmeyer flasks and incubated at 37 °C in 5% CO2 atmosphere and shaken at 130 rpm in an orbital shaker for 2 h. A total of 90 μg of the plasmids (VH:VL = 2:3) mixed with transfection reagent were pre-warmed for 15 min and then transiently transfected into HEK 293F. After 5 days of incubation, the supernatant was collected and purified by protein G. The size of the purified full-length rAb was identified by SDS-PAGE.
as §2
(§4) Under the optimal working concentrations of 10 µg/mL for imidacloprid-OVA, icELISAs with high sensitivity to neonicotinoid pesticides and metabolites were established.

For assay [9], the system named is 6F11-mAb. In words: icELISA with purified 6F11-mAb. Format: binding, mouse. The note with it: 6F11-mAb. Here is the method: as §1, §2, §4
[10] abbreviates: cross-reactivity relative to imidacloprid.

Molecules are shown by their SMILES. Values after ≈ are worked out from the molar mass of the structure shown.

Consider `O=[N+]([O-])NC1=NCCN1Cc1ccc(Cl)nc1` [Imidacloprid, imidacloprid], for which the CR was found to be 100.0% in assay [1] (mAb 4B1, cross-reactivity relative to imidacloprid); 100.0% in [2] (mAb 5C3, cross-reactivity relative to imidacloprid); 100.0% in assay [4] (mAb 6F11, cross-reactivity relative to imidacloprid); 100.0% in assay [6] (mAb 1A5, cross-reactivity relative to imidacloprid); 100.0% in [8] (setting [10]); 100.0% in [9] (setting [10]). The IC50 in assay [1] (mAb 4B1, hybridoma supernatant, icELISA) is given as 2.90 ng/mL; in assay [2] (mAb 5C3, hybridoma supernatant, icELISA) it was 0.24 ng/mL; in [4] (mAb 6F11, hybridoma supernatant, icELISA), 0.59 ng/mL; in assay [6] (mAb 1A5, hybridoma supernatant, icELISA), 1.14 ng/mL; in [7] (with a strip reader) it was 0.9 ng/mL (≈ 3.52 nM); in assay [8] (imidacloprid-OVA 10 µg/mL), 0.36 ng/mL. The IC50 in assay [9] (imidacloprid-OVA 10 µg/mL) amounted to 0.27 ng/mL. The cross-reactivity in [3] is recorded as 91.7%. Also, the inhibition rate in assay [5] is given as greater than 50%. Further, the “limit detection of T-line disappearance (visual detection limit)” value in assay [7] (normal visual detection) was 5 ng/mL.
